One experiment deals with pAkt(5473), BT474 cells. Briefly: In-cell Western assay, pAkt(5473) in BT474 cells. In kind it is cell-based. As to conditions: Homo sapiens, BT-474, BT474 cell line, read-out: inhibition of pAkt(5473), IC50.
The next experiment concerns pAkt(5473), T47D cells. Nature of the experiment: In-cell Western assay, pAkt(5473) in T47D cells. The experiment is classed as cell-based. The note with it: Homo sapiens, T47D cell line, read-out: inhibition of pAkt(5473), IC50.
In a further experiment the test system is pS6RP, BT474 cells. Briefly: In-cell Western assay, pS6RP in BT474 cells. The note with it: Homo sapiens, BT-474, BT474 cell line, read-out: inhibition of pS6RP, IC50. The experiment is classed as cell-based.
For another experiment, the system named is pS6RP, T47D cells. Briefly: In-cell Western assay, pS6RP in T47D cells. The experiment is classed as cell-based. As to conditions: Homo sapiens, T47D cell line, read-out: inhibition of pS6RP, IC50.
A further experiment relates to BT474 cells. Nature of the experiment: XTT assay for cell viability, BT474 cells. In kind it is cell-based. As to conditions: Homo sapiens, BT-474, read-out: inhibition of cell proliferation, IC50. The protocol: (§1) Using a commercial kit from Sigma Aldrich (Catalog #X34251) and following its protocol, PC3 cells in the log phase of growth were employed and seeded at an optimal density of 1000 cell/well on to 96 well plates and incubated for 24 h followed by the addition of compounds of formula (I) in serial dilutions. Compound dilutions were made in DMSO. The cells were incubated with the compounds of formula (I) for 96 h and XTT tetrazolium dye (Sigma, USA) was subsequently added and incubated at 37° C. After the color formation, absorbance was measured at 465 nm in a Spectramax® Gemini spectrophotometer. EC50 values were calculated using a sigmoidal dose response curve fit in GraphPad Prism® v5 software. The tested compounds of formula (I) which caused inhibition of PC3 cell proliferation as determined by this assay protocol are shown in Table 2.
(§2) XTT assays for cell viability are also determined in BT474 cells and T47D cells, in a similar manner to the protocol described above.

The test system of the next experiment is T47D cells. Nature of the experiment: XTT assay for cell viability, T47D cells. The experiment is classed as cell-based. As to conditions: Homo sapiens, read-out: inhibition of cell proliferation, IC50. The protocol:
as §1, §2

The next experiment concerns the target PI3 kinase isoform γ (Homo sapiens, UniProt P48736). Briefly: PI3 Kinase TR-FRET assay, isoform γ. The note with it: read-out: inhibition of PI3 kinase isoform γ, IC50. The experiment is classed as biochemical. The protocol:
The ability of compounds of the invention to inhibit PI3K activity was determined in a homogeneous TR-FRET assay using a PI3K assay kit (Millipore, USA; cat #33-016) according to manufacturer's instructions. PI3-Kinases (isoforms α, β, γ and δ) catalyze the phosphorylation of phosphatidylinositol, PIP2 to PIP3 in the presence of ATP and Mg^2+. The PIP3 product is detected by displacement of biotin-PIP3 from an energy transfer complex consisting of Europium labeled anti-GST monoclonal antibody, a GST-tagged PH domain, biotinylated PIP3 and Streptavidin-APC. Excitation of Europium in the complex results in an energy transfer to the APC and a fluorescence emission at 665 nm. The PIP3 product displaces biotin-PIP3 from the complex resulting in a loss of energy transfer and thus a decrease in signal.
To test for the ability of compounds to inhibit the activity of PI3Kα (wild-type), exemplary compounds of formula (I) were dissolved in DMSO and directly distributed into 384-well plates at a volume of 0.5 μL. […] Fluorescence was measured at 615 and 665 nm upon excitation at 340 nm in a Victor™ V5 fluorometer (Perkin Elmer, USA). The fluorescence emission ratio at 665 to 615 nm, proportional to the kinase activity, was plotted against the compound concentration to generate dose-response curves and IC50 values were determined using GraphPad Prism® 5 software. […]

Another experiment deals with BT474 tumor cells. Nature of the experiment: In vivo efficacy study (tumor growth suppression), BT474 xenograft. The note with it: BT474 xenograft mice, after 14 days of dosing at 40 mg/kg bid po.

The structures appear in SMILES notation.

Sequence of PI3 kinase isoform γ (P48736 whole entry, the tested form may be a part, canonical isoform): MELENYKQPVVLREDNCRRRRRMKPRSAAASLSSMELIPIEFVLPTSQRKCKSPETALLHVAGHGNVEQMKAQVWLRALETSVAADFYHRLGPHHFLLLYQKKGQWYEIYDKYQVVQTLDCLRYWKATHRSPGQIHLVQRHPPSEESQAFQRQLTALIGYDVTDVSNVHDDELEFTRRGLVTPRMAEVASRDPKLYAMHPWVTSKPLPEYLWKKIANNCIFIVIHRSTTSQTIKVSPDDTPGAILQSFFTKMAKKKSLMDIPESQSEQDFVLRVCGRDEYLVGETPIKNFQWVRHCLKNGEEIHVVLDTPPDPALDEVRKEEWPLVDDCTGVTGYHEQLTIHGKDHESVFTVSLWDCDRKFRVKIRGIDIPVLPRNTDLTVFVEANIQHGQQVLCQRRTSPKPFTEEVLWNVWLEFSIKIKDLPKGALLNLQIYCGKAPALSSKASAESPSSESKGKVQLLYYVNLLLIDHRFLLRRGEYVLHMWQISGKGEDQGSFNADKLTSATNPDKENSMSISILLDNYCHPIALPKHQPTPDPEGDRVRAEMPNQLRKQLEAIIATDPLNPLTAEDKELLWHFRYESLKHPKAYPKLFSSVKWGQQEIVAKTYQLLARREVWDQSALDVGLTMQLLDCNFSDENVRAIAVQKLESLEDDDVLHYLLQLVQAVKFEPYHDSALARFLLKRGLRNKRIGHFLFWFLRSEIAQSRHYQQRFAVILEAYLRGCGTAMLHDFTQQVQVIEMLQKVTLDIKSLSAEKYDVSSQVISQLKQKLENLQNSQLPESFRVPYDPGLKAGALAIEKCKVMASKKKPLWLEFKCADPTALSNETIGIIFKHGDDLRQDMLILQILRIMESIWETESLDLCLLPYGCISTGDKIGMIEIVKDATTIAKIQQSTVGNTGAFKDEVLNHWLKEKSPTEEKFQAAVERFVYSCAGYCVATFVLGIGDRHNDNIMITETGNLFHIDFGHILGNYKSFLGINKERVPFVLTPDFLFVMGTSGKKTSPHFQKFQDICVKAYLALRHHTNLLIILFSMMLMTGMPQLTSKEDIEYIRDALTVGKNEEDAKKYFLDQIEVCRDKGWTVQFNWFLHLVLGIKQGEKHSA

On to `CN(C)C(=O)c1ccc(NC(=O)Nc2ccc(-c3nc(N4CCOCC4)c4ccc(-c5cncnc5)cc4n3)cc2)cc1` [Example 1, N,N-Dimethyl-4-(3-{4-[4-morpholin-4-yl-7-pyrimidin-5-yl-quinazolin-2-yl)-phenyl]-ureido}-benzamide], for which the IC50 is less than 300 nM in the experiment on pAkt(5473), BT474 cells; less than 300 nM in the experiment with pAkt(5473), T47D cells; less than 50 nM in the experiment with pS6RP, BT474 cells; less than 50 nM with pS6RP, T47D cells; less than 100 nM in the experiment on BT474 cells; less than 100 nM in the experiment on T47D cells.
Turning to `Cc1ccc(-c2ccc3c(N4CCOCC4)nc(-c4ccc(NC(=O)Nc5ccc(C(=O)N(C)C)cc5)cc4)nc3c2)o1` [Example 2, N,N-Dimethyl-4-(3-{4-[7-(5-methyl-furan-2-yl)-4-morpholin-4-yl-quinazolin-2-yl]-phenyl}-ureido)-benzamide], the IC50 on PI3 kinase isoform γ is less than 1000 nM. For the same compound, the “tumor growth inhibition relative to vehicle control group” value with BT474 tumor cells is “about 65%”.
On to `CN(C)C(=O)c1ccc(NC(=O)Nc2ccc(-c3nc(N4CCOCC4)c4ccc(-c5ccco5)cc4n3)cc2)cc1` [Example 51, 4-{3-[4-(7-furan-2-yl-4-morpholin-4-yl-quinazolin-2-yl)-phenyl]-ureido}-N,N-dimethyl-benzamide], for which, in the experiment on BT474 tumor cells, the “tumor growth inhibition relative to vehicle control group” value is reported as “about 70%”.

The record behind these values is patent US9115092B2, “Substituted quinazoline and pyrido-pyrimidine derivatives” (Asana Biosciences, LLC, priority 2010, dated 2015).
